For 32 compounds, MIC90, IC50 and selectivity ratio results are on record in ChEMBL document CHEMBL4400559, “Exploiting the furo[2,3-b]pyridine core against multidrug-resistant Mycobacterium tuberculosis” (Bioorg Med Chem Lett, 2019).

In series [1] the test system is Mycobacterium tuberculosis. Nature of the series: Antibacterial activity against Mycobacterium tuberculosis H37Rv ATCC 27294 after 7 days by resazurin microtiter assay. Particulars: H37Rv ATCC 27294, 168 h. The format is functional. (Alamar Blue is a resazurin reagent that responds to reducing activity.)
For a further series, the system named is MRC5. Nature of the series: Cytotoxicity against human MRC5 cells after 24 hrs by resazurin dye-based fluorescence assay. The format is cell-based. The following applies: MRC5, 24 h.
For a further series, the system named is J774.A1. Nature of the series: Cytotoxicity against mouse J774A.1 cells after 24 hrs by resazurin dye-based fluorescence assay. It counts as cell-based. Particulars: J774.A1, 24 h.
Series [2] in a line: Selectivity index, ratio of IC50 for mouse J774A.1 cells to MIC90 for Mycobacterium tuberculosis H37Rv ATCC 27294. The format is toxicity. The following applies: read-out: Selectivity Index.
Series [3] is described as follows: Selectivity index, ratio of IC50 for human MRC5 cells to MIC90 for Mycobacterium tuberculosis H37Rv ATCC 27294. The format is toxicity. Particulars: read-out: Selectivity Index.

Converted amounts (≈) assume the structure as drawn.

On to `NCC[C@H](O)C(=O)N[C@@H]1C[C@H](N)[C@@H](O[C@H]2O[C@H](CN)[C@@H](O)[C@H](O)[C@H]2O)[C@H](O)[C@H]1O[C@H]1O[C@H](CO)[C@@H](O)[C@H](N)[C@H]1O` [AMIKACIN], for which, in series [1], the MIC90 – broadly, an inhibitory concentration at the 90% level, which refers to growth in some studies and to a panel of isolates in others – came out at 0.4 µM (≈ 0.234 µg/mL).

In series [1], `CCOC(=O)c1c(-c2ccccc2)oc2nc(N3CCCC3)ccc12` came in with an MIC90 above 74.4 µM. For the same compound, the IC50 (commonly the midpoint of a concentration-inhibition curve) in the series on MRC5 was above 298 µM.

In series [1], `CCCSc1ccc2c(C(=O)OCC)c(C(C)C)oc2n1` registered an MIC90 above 81.3 µM.

Turning to `NNC(=O)c1ccncc1` [ISONIAZID], in series [1], the MIC90 is 0.8 µM (≈ 0.11 µg/mL).

On to `CNC(=O)c1c(-c2ccc(O)cc2)oc2ccc(O)c(CN3CCCCC3)c12`, for which the MIC90 in series [1] turned out to be 0.09 µM (≈ 0.0342 µg/mL).

As to `CCOC(=O)c1c(C(C)C)oc2nc(N3CCN(c4ccccc4)CC3)ccc12`, in series [1], the MIC90 was above 63.6 µM.

In the case of `CCOC(=O)c1c(C(C)C)oc2nccc(N3CCN(c4ccc(Cl)cc4)CC3)c12`, the IC50 in the series on J774.A1 is above 234 µM. Also, in series [1], the MIC90 is above 58.5 µM.

`CNC(=O)c1c(C)oc2nc(N3CCCC3)ccc12`: in series [1], the MIC90 was above 96.4 µM.

For `CCOC(=O)c1c(C)oc2ncc(N3CC[C@@H](F)C3)cc12`, the MIC90 in series [1] is above 85.6 µM. Moreover, the IC50 with MRC5 was above 342 µM.

`N[C@@H]1CONC1=O` [CYCLOSERINE] came in with an MIC90 in series [1] of 37.1 µM (≈ 3.79 µg/mL).

`CCOC(=O)c1c(C(C)C)oc2nc(N3CCN(c4ccc(Cl)cc4)CC3)ccc12` registered an MIC90 in series [1] above 58.5 µM.

As for `CCOC(=O)c1c(C(C)C)oc2nc(N3CCCC3)ccc12`, the selectivity ratio in series [2] and in series [3] was above 10.1 in each case. The IC50 in the series on J774.A1 and with MRC5 was above 331 µM in each case. The compound further had an MIC90 in series [1] of 32.8 µM (≈ 9.92 µg/mL).

Take `CCCCNc1ccc2c(C(=O)OCC)c(C(C)C)oc2n1`: the selectivity ratio in series [2] and in series [3] was above 14.2 throughout. Also, the IC50 in the series with J774.A1 and with MRC5 was above 328 µM throughout. Besides, in series [1], the MIC90 worked out at 23.2 µM (≈ 7.06 µg/mL).

Regarding `CCOC(=O)c1c(-c2ccccc2)oc2ncc(N3CCCC3)cc12`, the MIC90 in series [1] is above 74.4 µM. In addition, in the series with MRC5, the IC50 was above 298 µM.

Regarding `CC(C)c1oc2nc(N3CCCC3)ccc2c1C(=O)O`, in series [1], the MIC90 was above 91.1 µM.

On to `CCOC(=O)c1c(C(C)C)oc2nc(N3CCOCC3)ccc12`, for which the MIC90 in series [1] is above 78.5 µM.

In the case of `CCCSc1cnc2oc(C(C)C)c(C(=O)OCC)c2c1`, the MIC90 in series [1] is above 81.3 µM.

For `CCOC(=O)c1c(C)oc2nc(N3CC[C@@H](F)C3)ccc12`, the MIC90 in series [1] was above 85.6 µM. The IC50 in the series with MRC5 was above 342 µM.

In the case of `CO[C@H]1/C=C/O[C@@]2(C)Oc3c(C)c(O)c4c(O)c(c(/C=N/N5CCN(C)CC5)c(O)c4c3C2=O)NC(=O)/C(C)=C\C=C\[C@H](C)[C@H](O)[C@@H](C)[C@@H](O)[C@@H](C)[C@H](OC(C)=O)[C@@H]1C` [RIFAMPIN], the MIC90 in series [1] stood at 0.06 µM (≈ 0.0494 µg/mL).

In series [1], `Cc1oc2nc(N3CCCC3)ccc2c1C(=O)O` displayed an MIC90 above 102 µM.

As for `CCOC(=O)c1c(C)oc2nccc(N3CCOCC3)c12`, in the series on J774.A1, the IC50 was above 314 µM. In addition, the MIC90 in series [1] is above 86.1 µM.

In turn, `COc1c(N2C[C@@H]3CCCN[C@@H]3C2)c(F)cc2c(=O)c(C(=O)O)cn(C3CC3)c12` [MOXIFLOXACIN] gave an MIC90 in series [1] below 0.2 µM.

In the series on J774.A1, `CCOC(=O)c1c(C)oc2nccc(N3CCN(c4ccccc4)CC3)c12` yielded an IC50 of 120 µM. For the same compound, in series [1], the MIC90 is above 68.5 µM.

As for `CCOC(=O)c1c(C(C)C)oc2nccc(N3CCOCC3)c12`, the IC50 with J774.A1 is 215 µM. Besides, the MIC90 in series [1] was above 78.5 µM.

Regarding `CCOC(=O)c1c(C)oc2nc(N3CCCC3)ccc12`, the selectivity ratio in series [2] was 18.7; in series [3], above 34.7. Moreover, the results for the IC50 in the series on J774.A1 and in the series with MRC5 were 196 µM and above 364 µM, respectively. Moreover, the MIC90 in series [1] turned out to be 10.5 µM (≈ 2.88 µg/mL).

With `CC[C@@H](CO)NCCN[C@@H](CC)CO` [ETHAMBUTOL], the MIC90 in series [1] is 7 µM (≈ 1.43 µg/mL).

`CNC(=O)c1c(C(C)C)oc2nc(N3CCCC3)ccc12` showed an MIC90 in series [1] above 87 µM.

`CCOC(=O)c1c(C)oc2nc(N3CCOCC3)ccc12` showed an MIC90 in series [1] above 86.1 µM.

In the series on J774.A1, `CCOC(=O)c1c(C(C)C)oc2nccc(N3CCN(c4ccccc4)CC3)c12` gave an IC50 of 235 µM. In series [1], this compound showed an MIC90 above 63.6 µM.

In series [1], `CCOC(=O)c1c(C)oc2nc(N3CCN(c4ccccc4)CC3)ccc12` gave an MIC90 above 68.5 µM.

On to `CCOC(=O)c1c(C)oc2ncc(N3CCCC3)cc12`, for which the selectivity ratio in series [2] was 3.2; in series [3], above 4.4. The results for the IC50 with J774.A1 and in the series with MRC5 were 260 µM and above 364 µM, respectively. The compound also registered an MIC90 in series [1] of 82.3 µM (≈ 22.6 µg/mL).

`CCCCNc1cnc2oc(C(C)C)c(C(=O)OCC)c2c1` had an MIC90 in series [1] above 82.1 µM.
